The results in this text go back to US20260022142A1, “MACROCYCLIC IMMUNOMODULATORS” (Bristol-Myers Squibb Company, priority 2022, published 2026).

For orientation: IC50 means the point on the concentration scale where inhibition reaches its midpoint.

Numbered stars: 1 amine (or outer) side, 2 acyl side, 3 side chain; on linkers, the order of the positions; unused ones are H or OH. Bridge positions count the residues as written; N and C are the ends. Square brackets hold non-standard residues; d marks the D form. Peptide text beside a SMILES is read from it. * marks the point of attachment. ξ: configuration not given here. Bip = N[CH](Cc1ccc(-c2ccccc2)cc1)C(=O)O; Phe(3-Me) = Cc1cccc(C[C@H](N)C(=O)O)c1; γGlu = O=C(O)[C@H](CCC(=O)[*:2])N[*:1]; NH(CH2)12COOH = O=C(O)CCCCCCCCCCCCN*; hArg = N=C(N)NCCCC[C@H](N)C(=O)O; Cha = N[CH](CC1CCCCC1)C(=O)O; Ile(3ξ) = CCC(C)[C@H](N)C(=O)O; aThr = C[C@H](O)[C@H](N)C(=O)O; 4Pal = N[CH](Cc1ccncc1)C(=O)O; Thr(3ξ) = CC(O)[C@H](N)C(=O)O; 12Ado = NCCCCCCCCCCCC(=O)O; dOrn = NCCC[C@@H](N)C(=O)O; Carboxymethyl = O=C(O)C*; Orn = NCCC[CH](N)C(=O)O; Aun = NCCCCCCCCCCC(=O)O; Dab = NCC[CH](N)C(=O)O; AEEA = NCCOCCOCC(=O)O

The target in this assay is T1, PD-1/PD-L1 interaction (PE-labeled human PD-L1-Ig binding to Jurkat cell line over-expressing human PD-1) (Homo sapiens, UniProt Q15116).
T1 construct: expressed in transfected cells; host or cells: Jurkat
T1 sequence (Q15116 25-288): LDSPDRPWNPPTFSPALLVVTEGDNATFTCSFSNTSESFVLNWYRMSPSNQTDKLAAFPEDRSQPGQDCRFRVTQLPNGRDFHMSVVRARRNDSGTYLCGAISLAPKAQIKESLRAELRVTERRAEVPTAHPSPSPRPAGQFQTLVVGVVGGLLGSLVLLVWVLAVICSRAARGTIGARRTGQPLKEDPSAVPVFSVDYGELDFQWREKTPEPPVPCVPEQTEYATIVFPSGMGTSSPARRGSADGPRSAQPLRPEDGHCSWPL
Description: Jurkat-PD-1 Cell Binding High-Content Screening Assay (CBA). To be noted: Jurkat cell line over-expressing human PD-1; PE-labeled PD-L1-Ig 20 nM final; read-out: Jurkat hPD1-PDL1 IC50. The assay is classed as cell-based. Put shortly:
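Read-out is high-content imaging of cell-bound phycoerythrin-tagged PD-L1-Ig on fixed, Hoechst-counterstained Jurkat cells that over-express human PD-1. Compound exposure lasts 2 h at 37° C before the labeled ligand (20 nM final) is added for a further hour.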
Regarding `CCC(C)[C@@H]1NC(=O)[C@H](Cc2ccc(-c3ccccc3)cc2)NC(=O)[C@H](C(C)C)NC(=O)[C@H](Cc2c[nH]c3ccccc23)NC(=O)[C@H](CC(=O)O)NC(=O)[C@H](Cc2ccc(OCC(=O)O)cc2)NC(=O)[C@H](CCCCNC(=N)N)NC(=O)CSC[C@@H](C(=O)NCCOCCOCC(=O)N[C@@H](CCCCN)C(=O)NCCCCCCCCCCC(=O)O)NC(=O)[C@H](CO)NC(=O)[C@H](C(C)C)NC(=O)[C@H](CC2CCCCC2)NC(=O)[C@H](CCN)NC(=O)[C@@H](CC(C)C)NC(=O)[C@H](CCCN)NC1=O` (stereo partly drawn) [Compound 3082] ({CH2CO}-[hArg]Y(Carboxymethyl)DWV[Bip][Ile(3ξ)][Orn][dL][Dab][Cha]VSC[AEEA]K[Aun]-OH; thioether N-14), the IC50 was 11.3 nM.

For the molecule `CCC(C)[C@@H]1NC(=O)[C@H](Cc2ccc(-c3ccccc3)cc2)NC(=O)[C@H](C(C)C)NC(=O)[C@H](Cc2c[nH]c3ccccc23)NC(=O)[C@H](CC(=O)O)NC(=O)[C@H](Cc2ccc(OCC(=O)O)cc2)NC(=O)[C@H]([C@H](C)O)NC(=O)CSC[C@@H](C(=O)NCCOCCOCC(=O)N[C@@H](CCCCN)C(=O)NCCCCCCCCCCC(=O)O)NC(=O)[C@H](CO)NC(=O)[C@H](C(C)C)NC(=O)[C@H](CC(C)C)NC(=O)[C@H](CCN)NC(=O)[C@@H](CC(C)C)NC(=O)[C@H](CCCN)NC1=O` (stereo partly drawn) [Compound 3083] ({CH2CO}-[aThr]Y(Carboxymethyl)DWV[Bip][Ile(3ξ)][Orn][dL][Dab]LVSC[AEEA]K[Aun]-OH; thioether N-14), the IC50 is 26.2 nM.

Regarding `CCC(C)[C@@H]1NC(=O)[C@H](Cc2ccc(-c3ccccc3)cc2)NC(=O)[C@H](CC(C)C)NC(=O)[C@H](Cc2cccc(C)c2)NC(=O)[C@H](CC(=O)O)NC(=O)[C@H](Cc2ccc(OCC(=O)O)cc2)NC(=O)[C@H](Cc2ccc(OCC(=O)O)cc2)NC(=O)CSC[C@@H](C(=O)NCCOCCOCC(=O)N[C@@H](CCC(=O)NCCCCCCCCCCC(=O)O)C(=O)O)NC(=O)[C@H](CO)NC(=O)[C@H](C(C)C)NC(=O)[C@H](CC(C)C)NC(=O)[C@H](CCN)NC(=O)[C@@H](CC(C)C)NC(=O)[C@H](CCCN)NC1=O` (stereo partly drawn) [Compound 3085] ({CH2CO}-Y(Carboxymethyl)Y(Carboxymethyl)D[Phe(3-Me)]L[Bip][Ile(3ξ)][Orn][dL][Dab]LVSC[AEEA][γGlu][Aun]-OH; thioether N-14), the IC50 was 12 nM.

Consider `CCC(C)C1NC(=O)C(Cc2ccc(-c3ccccc3)cc2)NC(=O)C(CC(C)C)NC(=O)C(Cc2c[nH]c3ccccc23)NC(=O)C(CC(=O)O)NC(=O)C(Cc2ccc(OCC(=O)O)cc2)NC(=O)C(Cc2ccncc2)NC(=O)CSCC(C(=O)NCCOCCOCC(=O)NC(CCCN)C(=O)NCCCCCCCCCCC(=O)O)NC(=O)C(C(C)O)NC(=O)C(C(C)C)NC(=O)C(CC2CCCCC2)NC(=O)C(CCN)NC(=O)C(CC(C)C)NC(=O)C(CCCN)NC1=O` (stereo not shown) [Compound 3089] ({CH2CO}-[4Pal]Y(Carboxymethyl)DWL[Bip]I[Orn]L[Dab][Cha]VTC[AEEA][Orn][Aun]-OH; thioether N-14; configuration not given here), for which the IC50 worked out at 39.2 nM.

As to `CCC(C)[C@@H]1NC(=O)[C@H](Cc2ccc(-c3ccccc3)cc2)NC(=O)[C@H](C(C)C)NC(=O)[C@H](Cc2c[nH]c3ccccc23)NC(=O)[C@H](CC(=O)O)NC(=O)[C@H](Cc2ccc(OCC(=O)O)cc2)NC(=O)[C@H](C(C)O)NC(=O)CSC[C@@H](C(=O)N[C@H](CCCN)C(=O)NCCOCCOCC(=O)NCCCCCCCCCCC(=O)O)NC(=O)[C@H](CO)NC(=O)[C@H](C(C)C)NC(=O)[C@H](CC(C)C)NC(=O)[C@H](CCN)NC(=O)[C@@H](CC(C)C)NC(=O)[C@H](CCCN)NC1=O` (stereo partly drawn) [Compound 3090] ({CH2CO}-[Thr(3ξ)]Y(Carboxymethyl)DWV[Bip][Ile(3ξ)][Orn][dL][Dab]LVSC[dOrn][AEEA][Aun]-OH; thioether N-14), the IC50 was 99.8 nM.

With `CCC(C)[C@@H]1NC(=O)[C@H](Cc2ccc(-c3ccccc3)cc2)NC(=O)[C@H](C(C)C)NC(=O)[C@H](Cc2cccc(C)c2)NC(=O)[C@H](CC(=O)O)NC(=O)[C@H](Cc2ccc(OCC(=O)O)cc2)NC(=O)[C@H](C(C)O)NC(=O)CSC[C@@H](C(=O)N[C@H](CCN)C(=O)NCCCCCCCCCCC(=O)O)NC(=O)[C@H](C(C)O)NC(=O)[C@H](C(C)C)NC(=O)[C@H](CC2CCCCC2)NC(=O)[C@H](CCN)NC(=O)[C@@H](CC(C)C)NC(=O)[C@H](CCCN)NC1=O` (stereo partly shown) [Compound 3091], the concentration for half-maximal inhibition (IC50) stood at 26.9 nM.

On to `CCC(C)[C@@H]1NC(=O)[C@H](Cc2ccc(-c3ccccc3)cc2)NC(=O)[C@H](C(C)C)NC(=O)[C@H](Cc2cccc(C)c2)NC(=O)[C@H](CC(=O)O)NC(=O)[C@H](Cc2ccc(OCC(=O)O)cc2)NC(=O)[C@H](C(C)O)NC(=O)CSC[C@@H](C(=O)N[C@H](CCN)C(=O)NCCCCCCCCCCCC(=O)O)NC(=O)[C@H](C(C)O)NC(=O)[C@H](C(C)C)NC(=O)[C@H](CC2CCCCC2)NC(=O)[C@H](CCN)NC(=O)[C@@H](CC(C)C)NC(=O)[C@H](CCCN)NC1=O` (stereo partly shown) [Compound 3092], for which the IC50 was found to be 22 nM.

For `CCC(C)[C@@H]1NC(=O)[C@H](Cc2ccc(-c3ccccc3)cc2)NC(=O)[C@H](C(C)C)NC(=O)[C@H](Cc2cccc(C)c2)NC(=O)[C@H](CC(=O)O)NC(=O)[C@H](Cc2ccc(OCC(=O)O)cc2)NC(=O)[C@H](C(C)O)NC(=O)CSC[C@@H](C(=O)N[C@@H](CCN)C(=O)NCCCCCCCCCCCCC(=O)O)NC(=O)[C@H](CO)NC(=O)[C@H](C(C)C)NC(=O)[C@H](CC2CCCCC2)NC(=O)[C@H](CCN)NC(=O)[C@@H](CC(C)C)NC(=O)[C@H](CCCN)NC1=O` (stereo partly drawn) [Compound 3093] ({CH2CO}-[Thr(3ξ)]Y(Carboxymethyl)D[Phe(3-Me)]V[Bip][Ile(3ξ)][Orn][dL][Dab][Cha]VSC[Dab]-{NH(CH2)12COOH}; thioether N-14), the IC50 was determined as 50.1 nM.

`CCC(C)[C@@H]1NC(=O)[C@H](Cc2ccc(-c3ccccc3)cc2)NC(=O)[C@H](C(C)C)NC(=O)[C@H](Cc2cccc(C)c2)NC(=O)[C@H](CC(=O)O)NC(=O)[C@H](Cc2ccc(OCC(=O)O)cc2)NC(=O)[C@H](C(C)O)NC(=O)CSC[C@@H](C(=O)NCCOCCOCC(=O)N[C@@H](CCCCN)C(=O)NCCCCCCCCCCCC(=O)O)NC(=O)[C@H](C(C)O)NC(=O)[C@H](C(C)C)NC(=O)[C@H](CC2CCCCC2)NC(=O)[C@H](CCN)NC(=O)[C@@H](CC(C)C)NC(=O)[C@H](CCCN)NC1=O` (stereo partly drawn) [Compound 3095] ({CH2CO}-[Thr(3ξ)]Y(Carboxymethyl)D[Phe(3-Me)]V[Bip][Ile(3ξ)][Orn][dL][Dab][Cha]V[Thr(3ξ)]C[AEEA]K[12Ado]-OH; thioether N-14): the IC50 came to 10.1 nM.

Consider `CCC(C)[C@@H]1NC(=O)[C@H](Cc2ccc(-c3ccccc3)cc2)NC(=O)[C@H](C(C)C)NC(=O)[C@H](Cc2c[nH]c3ccccc23)NC(=O)[C@H](CC(=O)O)NC(=O)[C@H](Cc2ccc(OCC(=O)O)cc2)NC(=O)[C@H](CCN)NC(=O)CSC[C@@H](C(=O)NCCOCCOCC(=O)N[C@@H](CCCCN)C(=O)NCCCCCCCCCCCC(=O)O)NC(=O)[C@H](C(C)O)NC(=O)[C@H](C(C)C)NC(=O)[C@H](CC2CCCCC2)NC(=O)[C@H](CCN)NC(=O)[C@@H](CC(C)C)NC(=O)[C@H](CCCN)NC1=O` (stereo partly drawn) [Compound 3096] ({CH2CO}-[Dab]Y(Carboxymethyl)DWV[Bip][Ile(3ξ)][Orn][dL][Dab][Cha]V[Thr(3ξ)]C[AEEA]K[12Ado]-OH; thioether N-14), for which the IC50 came out at 12.1 nM.
